Reference: article PMC3750913 (BMC Microbiology, 2013)
Read-outs that look alike come from different tables or passages of the source.

Tests used:
[1] = tested on: HCV; experiment: Viral cell-to-cell spread assay; assay type: cell-based, hepatitis C virus; conditions: for effect on viral plaque size (cell-to-cell spread): HCV, Figure 7; for inhibition at 50 µM: Hepatitis C virus, Huh7.5, read-out: Window of antiviral effects: Cell-to-cell spread, inhibitory effect relative to DMSO control
Protocol: (A) Schematic of the experiment (left) with the virus concentration (PFU/well) and step-wise incubation periods (i, ii, iii) indicated for each virus in the table on the right. Virus infections were established (i) in the different cell types by direct inoculation (HCMV, DENV-2, MV, and RSV) or electroporation of viral RNA (HCV; *), and the cell monolayers were washed with citrate buffer or PBS before being covered with an overlay medium that prevents secondary infection. Initial virus plaques were allowed to form in the subsequent infections (ii), and then the test compounds were added to the overlay medium for an additional time of incubation (iii) before analysis of viral plaque size by immune fluorescence microscopy. Five random virus-positive plaques at the endpoint of the experiment were evaluated for each treatment group of viruses, and the data was plotted as “fold change of plaque area” against the size of the initial viral plaques formed prior to test compound treatment. Analyses for (B) HCMV, (C) HCV, (D) DENV-2, (E) MV, and (F) RSV are indicated in each additional panel. The S29 cell line and the FIP inhibitor were included as controls for HCV and MV, respectively. Results shown are means ± SEM from three independent experiments and representative micrographs of the evaluated plaques are provided in Additional file 1 Figure S1, Additional file 2 Figure S2, Additional file 3 Figure S3, Additional file 4 Figure S4 and Additional file 5 Figure S5. See text for details.
The examination of HCV spread is based on previously described protocol with some modifications. Huh-7.5 cells were electroporated with HCV Jc1FLAG2(p7-nsGluc2A) RNA (10 μg) as described above to establish random productive infections in the cell population, and then mixed with naïve cells at a ratio of 1:1 before seeding in 12-well plates. […] Medium was changed 24 h post-electroporation with an overlay medium containing the test drugs or control and 0.5% methylcellulose, and the plates were further incubated for 5 days before analysis of HCV-positive foci through immunostaining.
For immunofluorescence analysis of viral plaque size due to spread, the overlay media were removed and the wells were fixed with ice-cold methanol before blocking with 3% BSA. Samples were then treated at 37°C for 1 h with the respective mouse monoclonal primary antibodies diluted in PBS containing 3% BSA: anti-HCMV gB antibody (1:1,000), anti-NS5A 9E10 antibody for HCV (1:25,000), anti-flavivirus group antibody (1:400) for DENV-2, and anti-RSV fusion protein antibody (1:1,000). After incubation, the wells were washed with PBS three times before applying Alexa Fluor 488 goat anti-mouse IgG (H + L) antibody (Invitrogen), diluted at 1:1,000 (HCMV and RSV) or 1:400 (DENV-2 and HCV) in PBS containing 3% BSA. Following incubation at 37°C for 1 h, the samples were washed with PBS three times prior to visualization by fluorescence microscopy. The fluorescence expression of MV-EGFP could be readily detected without addition of antibodies. Photomicrographs were taken at × 100 magnification (Leica Microsystems; Wetzlar, Germany) and viral plaque sizes were then analyzed with MetaMorph software (Molecular Devices; Sunnyvale, CA, USA). In the case of HCV, cellular nuclei were stained with Hoechst dye (Sigma) prior to visualization and the number of cells in the virus-positive foci was determined. For all virus tested, a total of five random virus-positive plaques were evaluated for each treatment group per independent experiment. Comparison was made between viral plaques stained prior to drug addition and those at the endpoint of the experiment, and the data were plotted as “fold change of plaque area”.

[2] = tested on: HCV; experiment: Viral attachment assay, method 2 (virus-specific cellular ELISA); assay type: cell-based, hepatitis C virus; conditions: HCV MOI 0.1, ELISA, 4°C; highest inhibitory concentration of the compounds
[3] = tested on: HCMV; experiment: Viral penetration assay; assay type: cell-based, human cytomegalovirus; conditions: for protection of the host cell from infection during virus penetration: HCMV, shift 4°C to 37°C, Figure 4
[4] = tested on: DENV-2; experiment: Viral penetration assay; assay type: cell-based, dengue virus type 2; conditions: DENV-2; shift 4°C to 37°C; Figure 4
[5] = tested on: RSV; experiment: Viral inactivation assay; assay type: cell-based, respiratory syncytial virus; conditions: for block of infection after pre-incubation of free virus with compound: RSV, CHLA 1 μM, PUG 2 μM, Figure 3
[6] = tested on: HCV; experiment: Viral inactivation assay; assay type: cell-based
[7] = tested on: VSV; assay type: cell-based, vesicular stomatitis virus; conditions: A549 cells
[8] = tested on: HCMV; experiment: Viral attachment assay, method 1 (host cell infection); assay type: cell-based, human cytomegalovirus; conditions: Human betaherpesvirus 5, HEL, read-out: Window of antiviral effects: Attachment Method 1, inhibitory effect relative to DMSO control
[9] = XTT cytotoxicity assay; assay type: cell-based
Protocol: Cells (1 × 10^4 per well of 96-well plate) were treated with the test compounds for 3 days. Treatment effects on cell viability (%) and the 50% cytotoxic concentration (CC50) values of the test compounds were determined based on the XTT (2,3-bis[2-methoxy-4-nitro-5-sulfophenyl]-5-phenylamino)-carbonyl]-2H-tetrazolium hydroxide) assay as previously reported.

[10] = Human betaherpesvirus 5, HEL, read-out: Window of antiviral effects: Penetration, inhibitory effect relative to DMSO control
[11] = human respiratory syncytial virus, HEp-2, read-out: Window of antiviral effects: Free particle, inhibitory effect relative to DMSO control
[12] = Hepatitis C virus, Huh7.5, read-out: Window of antiviral effects: Free particle, inhibitory effect relative to DMSO control

For `O=C1O[C@H]2[C@@H]3OC(=O)c4cc(O)c(O)c(O)c4-c4c(O)c(O)c5oc(=O)c6c(c(O)c(O)c7oc(=O)c4c5c76)-c4c(cc(O)c(O)c4O)C(=O)OC[C@H]3OC(O)[C@@H]2OC(=O)c2cc(O)c(O)c(O)c2-c2c1cc(O)c(O)c2O` (mixture of isomers) [PUG, punicalagin], the “effect on viral plaque size (cell-to-cell spread)” value [1] was “near initial size”, the inhibition at 50 µM [1] was > 75% and the “Window of antiviral effects: Attachment Method 2, inhibitory effect relative to DMSO control” value [2] was “+++ (+++ > 75%)”. For the same compound, the “protection of the host cell from infection during virus penetration” value (from here on “protection of the host cell”) [3] was 50 – 90%, the inhibition at 40 µM [3, 10] was 50 to 75% and the “protection of the host cell” value [4] was 50 – 90%. For the same compound, the “block of infection after pre-incubation of free virus with compound” value [5] was 60 – 80%, the inhibition at 2 µM [5, 11] was > 75% and the inhibition at 50 µM [6, 12] was > 75%. For the same compound, the inhibition at 50 µM ([6]; Hepatitis C virus, read-out: inhibition of infection after pre-incubation of free virus with compound) was ~100%, the “SI (selectivity index, CC50/EC50)” value [7] was 8.62 and the inhibition at 40 µM [8] was 50 to 75%. For the same compound, the CC50 at 3 days ([9]; African green monkey, Vero cells, XTT assay, 3 days treatment, read-out: CC50) was 151 ± 9.31 µM, the CC50 at 3 days ([9]; Chinese hamster, CHO-SLAM cells, XTT assay, 3 days treatment, read-out: CC50) was 284 ± 11.5 µM and the CC50 at 3 days ([9]; human, A549 cells, 3 days treatment) was 319 ± 4.99 µM. The CC50 at 3 days ([9]; human, HEL cells, 3 days treatment) was 299 ± 9.14 µM, the CC50 at 3 days ([9]; human, HEp-2 cells, 3 days treatment) was 265 ± 23.7 µM and the CC50 at 3 days ([9]; human, Huh-7.5 cells, 3 days treatment) was 223 ± 3.41 µM.

For `O=C(O)C[C@@H]1C(=O)O[C@H]2[C@@H]3OC(=O)c4cc(O)c(O)c(O)c4-c4c(cc(O)c(O)c4O)C(=O)OC[C@H]2O[C@@H](OC(=O)c2cc(O)c(O)c(O)c2)[C@@H]3OC(=O)c2cc(O)c(O)c3c2[C@H]1[C@H](O)C(=O)O3` [CHLA, chebulagic acid], the “effect on viral plaque size (cell-to-cell spread)” value [1] was “near initial size”, the inhibition at 50 µM [1] was > 75% and the “Window of antiviral effects: Attachment Method 2, inhibitory effect relative to DMSO control” value [2] was “+++ (+++ > 75%)”. For the same compound, the “protection of the host cell” value [3] was 50 – 90%, the inhibition at 60 µM [3, 10] was 50 to 75% and the “block of infection after pre-incubation of free virus with compound” value [5] was 60 – 80%. For the same compound, the inhibition at 1 µM [5, 11] was > 75%, the inhibition at 50 µM [6, 12] was > 75% and the inhibition at 50 µM ([6]; Hepatitis C virus; read-out: inhibition of infection after pre-incubation of free virus with compound) was ~100%. The “SI (selectivity index, CC50/EC50)” value [7] was 5.17, the CC50 at 3 days ([9]; African green monkey) was 160 ± 7.46 µM and the CC50 at 3 days ([9]; Chinese hamster) was 352 ± 4.54 µM.
